Measurements published in US8017649B2, “Flavonoid compounds and uses thereof” (Howard Florey Institute of Experimental Physiology and …, priority 2005, dated 2011).
“Also recorded” adds a separate entry of the source.

Key:
anaesthetised rats = assay: Arterial pressure and heart rate in anaesthetised rats after intravenous injection; format: in vivo, rat; conditions: for change in heart rate (HR) / change in mean arterial pressure (MAP): intravenous, anaesthetised rats
Description: A unit dosage of an aqueous solution of 3-hydroxyflavone-3-hemiadipate (15) was administered to a group of male anesthetized Sprague Dawley rats intravenously and the blood pressure monitored over a period of time.
Male Sprague-Dawley rats (250-350 g) were anaesthetised with pentobarbitone sodium (60 mg kg^−1, ip). The trachea was isolated and cannulated with polyethylene tracheal tube (I.D. 2.0 mm), and the rat was allowed to breathe spontaneously.
The right carotid artery was cannulated and connected with a heparinised saline filled cannula (O.D. 0.75, I.D, 0.58 mm) and connected to a pressure transducer. Mean and phasic arterial pressure were continuously measured and recorded on a polygraph. The heart rate, was derived from the phasic arterial pressure using a tachometer.
DiOHF3HA ([…]) was injected intravenously, allowing at least 30 min between injections, and the peak changes in mean arterial pressure and heart rate measured. […] In a separate group of experiments ACh (0.3 mg/kg iv) and phenylephrine (PE, […]) were injected before and 30 minutes after DiOHF3HA (3 mg/kg iv), a time when arterial pressure and heart rate had returned to control levels. […]

[1] = Solubility in aqueous solution; format: physicochemical; conditions: water
[2] = tested on: endothelium-intact (EI) aortic rings; assay: PE-induced contraction of rat aortic rings; format: cell-based
Description: Rings were incubated for 20 minutes with DiOHF3HA at a range of concentrations (10^−7-10^−4 M) or vehicle (0.1% dimethyl sulphoxide, DMSO). A concentration response curve to PE (10^−9-10^−5 M) in endothelium-intact (EI) aortic rings was then performed. Experiments were conducted in the presence and absence of BuCHE (1000 U/L) to cleave the adipate in DiOHF3HA.

rat aortic rings = assay: Relaxation of rat aortic rings in response to A23187 or isoprenaline; format: cell-based; conditions: 0.1 mM, absence or presence of cholinesterase
anaesthetised sheep = assay: Myocardial ischaemia and reperfusion injury in anaesthetised sheep; format: in vivo; conditions: higher dose: DiOHF3HA 6.7 mg/kg, DiOHF 5 mg/kg i.v.; 1 h ischaemia, 3 h reperfusion
conscious rats = assay: Endothelin-1-induced ischaemic stroke in conscious rats; format: in vivo, rat; conditions: for hemineglect (sticky tape) test latency / infarct in cortex / infarct in striatum: DiOHF 10 mg/kg or DiOHF3HA 15 mg/kg/day i.v.; for infarct in cortex / infarct in striatum: 72 h
Description: Ischaemic stroke was studied in conscious rats, with daily monitoring of neurological function and post mortem morphological assessment of cerebral infarcts at 72 hours alter stroke. Unilateral, transient cerebral ischaemia and reperfusion was induced in conscious rats by injection of the potent vasoconstrictor endothelin-1 outside but close to the right middle cerebral artery MCA, (via a pre-implanted guide tube). The ensuing stroke was graded on a scale of 0 to 5 by immediate behaviour, and potential neuroprotective compounds were injected intravenously 3 h after the stroke, and at 24 hour intervals thereafter.
Male Hooded Wistar rats (280-340 g) were anaesthetised with pentobarbitone sodium in a volume of 0.6 ml (60 mg/kg i.p.) for insertion of an intravenous (i.v.) catheter into the jugular vein for acute drug administration, A 23-gauge stainless steel guide cannula was then stereotaxically implanted into the piriform cortex 2 mm dorsal to the right MCA (0.2 mm anterior, −5.2 mm lateral and −5.9 mm ventral). The cannula was secured with dental acrylate cement and two small screws inserted into the skull. The scalp was closed with sutures. Rats were housed individually on a 12 h day/night cycle at a temperature of 18-22° C. and allowed to recover for 5 days before induction of stroke.
Vaso constriction of the right middle cerebral artery (MCA) was induced in conscious rats by administration of the potent vasoconstrictor agent endothelin-1 (ET-1) (60 pmol in 3 μl of saline over 10 min) via a 30-gauge injector that protruded 2 mm beyond the end of the previously implanted stereotaxic guide cannula. The injector was held in place by a poly-tubing cuff and the rat was placed in a clear Plexiglass box for observation during ET-1 injection. During stroke induction we observed counter-clockwise circling, clenching and dragging of the contralateral forepaw, validating the correct placement of the cannula. These behavioural changes occurred within 2 to 10 minutes of the commencement of the ET-1 injection and similar behaviours have been reported by other researchers employing this model. We have assigned a rating scale of stroke severity based on these behavioural changes during stroke and have shown that vehicle-treated rats assigned with higher stroke ratings have greater infarct volumes and neurological deficits. […] Rectal temperatures were taken with a thermistor probe, prior to stroke and at 30- or 60-minute intervals for 3 hours after stroke.
All behavioural tests were conducted prior to any procedures (pre-surgery, day 1), immediately prior to ET-1-induced MCA occlusion (pre-ischemia, day 6) and 24, 48 and 72 hours after ET-1-induced MCA occlusion. The behaviour of each rat was compared to pre-stroke, thus each rat acted as its own control. All rats were coded so that the investigator was blinded to treatment condition. Neurological abnormalities were evaluated with the use of a neurological deficit score based on detection of abnormal posture and hemiplegia. Abnormal pastures were assessed by suspending rats by the tail and scoring twisting of the thorax and extension of the forelimbs. Hemiplegia was evaluated when rats were placed on a raised platform. Deficits were deemed to be present when the hind limb contralateral to the infarcted hemisphere slipped off the edge of the platform and/or when the contralateral forelimb slipped off when the snout and whiskers were not in contact with the surface. All behaviours were scored on the following scale: 0=no deficit; 1=slight; 2=moderate; and 3=severe. Thus, when scores were totalled the maximum neurological deficit score was 12. A score of 0 was considered normal.
Sensory hemi-neglect was evaluated using a test consisting of placing adhesive tapes (Avery adhesive label, […] circles) on the distal-radial region of each wrist, Placement of the first tape was randomised between contralateral and ipsilateral limbs. […]

[3] = 30 min after DiOHF3HA 3 mg/kg iv
[4] = all stroke grades (2-4), DiOHF3HA 15 mg/kg/day
[5] = mild to moderate strokes, DiOHF 10 mg/kg or DiOHF3HA 15 mg/kg/day i.v. from 3 h post-stroke

| Structure (SMILES) | PE-induced increase in arterial pressure (anaesthetised rats; [3]) | depressor response to ACh (anaesthetised rats; [3]) | change in heart rate (HR) (anaesthetised rats) | change in mean arterial pressure (MAP) (anaesthetised rats) | solubility in aqueous solution [1] | effect on PE-induced contraction ([2]; alone, 0.1 mM) | effect on PE-induced contraction ([2]; in the presence of esterase (BuCHE)) | relaxation in response to A23187 or isoprenaline (rat aortic rings) | infarct size normalized to the area at risk (IS/AR) (anaesthetised sheep) | area of damage in the striatum (conscious rats; all stroke grades (2-4), DiOHF3HA 15 mg/kg) | infarct area through the cortex (conscious rats; all stroke grades (2-4), DiOHF3HA 15 mg/kg i.v.) | body weight following stroke (conscious rats; [4]) | core temperature following intravenous injection (conscious rats; [4]) | hemineglect (sticky label) test latency (conscious rats; [4]) | neurological deficit score (conscious rats; all stroke grades (2-4), DiOHF3HA 15 mg/kg/day, 24, 48 or 72 hours) | hemineglect (sticky tape) test latency (conscious rats; mild to moderate strokes) | neurological deficit score (conscious rats; [5]) | infarct in cortex (conscious rats; mild to moderate strokes) | infarct in striatum (conscious rats; mild to moderate strokes) | body weight following stroke (conscious rats; mild to moderate strokes, DiOHF3HA 15 mg/kg/day) |
| --- | --- | --- | --- | --- | --- | --- | --- | --- | --- | --- | --- | --- | --- | --- | --- | --- | --- | --- | --- | --- |
| O=C(O)CCCCC(=O)Oc1c(-c2ccc(O)c(O)c2)oc2ccccc2c1=O [DiOHF3HA, 3′,4′-dihydroxyflavone-3-hemiadipate] | diminished; also recorded: attenuated the PE-induced increase in arterial pressure | significantly enhanced the depressor response to ACh | dose-dependent decrease in HR; also recorded: dose-dependent decreases; also recorded: concentration dependent decreases | dose-dependent decrease in MAP; also recorded: dose-dependent decreases; also recorded: concentration dependent decreases | soluble in aqueous solution, particularly water | no effect on PE-induced contraction | inhibit the response to PE in a concentration dependent manner; also recorded: marked inhibition | no effect on endothelium-dependent relaxation | 49±8% | reduced the area of damage in the striatum | significantly reduced | no significant weight loss | not significantly different from pre-stroke temperature | abolished; also recorded: significantly improved neurological function in the hemineglect test | measurably improved neurological deficit scores | abolished; also recorded: significantly restored neurological function in the hemineglect test | no effect on neurological deficit scores | significantly reduced | significantly reduced the area of infarct through the striatum | did not lose weight |
| O=c1c(O)c(-c2ccc(O)c(O)c2)oc2ccccc12 [DiOHF, 3′,4′-Dihydroxyflavonol, reference compound] | – | – | dose-dependent decrease in HR | dose-dependent decreases in MAP | – | inhibit the response to PE in a concentration dependent manner | – | – | 47±8% | – | – | – | – | – | – | abolished the increase in hemineglect scores | reduced the neurological deficits at 48 and 72 h; also recorded: significantly improved neurological outcome | reduced the volume of infarct produced in the cerebral cortex; also recorded: significantly reduced the area of infarct | completely prevented an infarct developing in the striatum; also recorded: significantly reduced the area of infarct | – |
